In ChEMBL document CHEMBL1201862, “PubChem BioAssay data set” (2004):
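Where inhibition never reached the appropriate level, the endpoint shown equals the highest concentration tested. Otherwise, values were interpolated linearly from a five-concentration, 48-hour dose response in 96-well plates. GI50: concentration for 50% inhibition of growth.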 Activity calls are given as the source filed them. Cut-off read from the data, not from the text of the source: active = GI50 up to about 1.1 µM and inactive = higher.

What was measured:
Assay in all cases: inhibition of tumour cell growth, NCI panel, 48 h
CAKI-1 = test system: CAKI-1
Hs-578T = test system: Hs-578T
SK-OV-3 = test system: SK-OV-3
CCRF-CEM = test system: CCRF-CEM
UO-31 = test system: UO-31
T47D = test system: T47D
TK-10 = test system: TK-10
A549 = test system: A549
SK-MEL-28 = test system: SK-MEL-28
HOP-92 = test system: HOP-92
NCI-H23 = test system: NCI-H23
A498 = test system: A498
HOP-62 = test system: HOP-62
UACC-257 = test system: UACC-257
NCI-H226 = test system: NCI-H226
SN12C = test system: SN12C
M14 = test system: M14
LOX IMVI = test system: LOX IMVI
UACC-62 = test system: UACC-62
HCC 2998 = test system: HCC 2998

| SMILES | GI50 (CAKI-1) | GI50 (Hs-578T) | GI50 (SK-OV-3) | GI50 (CCRF-CEM) | GI50 (UO-31) | GI50 (T47D) | GI50 (TK-10) | GI50 (A549) | GI50 (SK-MEL-28) | GI50 (HOP-92) | GI50 (NCI-H23) | GI50 (A498) | GI50 (HOP-62) | GI50 (UACC-257) | GI50 (NCI-H226) | GI50 (SN12C) | GI50 (M14) | GI50 (LOX IMVI) | GI50 (UACC-62) | GI50 (HCC 2998) |
| --- | --- | --- | --- | --- | --- | --- | --- | --- | --- | --- | --- | --- | --- | --- | --- | --- | --- | --- | --- | --- |
| COc1nc(OC)nc(-c2cccc(F)c2)n1 | < 0.01 µM (active) | 32.1 µM (inactive) | 15.9 µM (inactive) | 9.2 µM (inactive) | 16.6 µM (inactive) | 13.2 µM (inactive) | 18.3 µM (inactive) | 17.1 µM (inactive) | 19 µM (inactive) | 6.41 µM (inactive) | 12 µM (inactive) | 19.1 µM (inactive) | 20.4 µM (inactive) | 14.3 µM (inactive) | 13.4 µM (inactive) | 16.2 µM (inactive) | 18 µM (inactive) | 17 µM (inactive) | 8.51 µM (inactive) | 13.4 µM (inactive) |
| O=C(CC(NC(=O)C(F)(F)F)C(=O)O)OCc1ccccc1 (configuration not stated) | > 100 µM (inactive) | > 100 µM (inactive) | > 100 µM (inactive) | > 100 µM (inactive) | > 100 µM (inactive) | > 100 µM (inactive) | > 100 µM (inactive) | > 100 µM (inactive) | > 100 µM (inactive) | > 100 µM (inactive) | > 100 µM (inactive) | > 100 µM (inactive) | > 100 µM (inactive) | > 100 µM (inactive) | > 100 µM (inactive) | > 100 µM (inactive) | > 100 µM (inactive) | > 100 µM (inactive) | > 100 µM (inactive) | > 100 µM (inactive) |
| Cc1c2c(c(C)n1-c1ccccc1)C(=O)N(CCCCN1CCN(c3ccccc3)CC1)C2=O | 31.1 µM (inactive) | 20.2 µM (inactive) | 27.4 µM (inactive) | 7.21 µM (inactive) | 4.17 µM (inactive) | 3.49 µM (inactive) | 30.2 µM (inactive) | 14.5 µM (inactive) | – | 8.17 µM (inactive) | 6.73 µM (inactive) | 26.1 µM (inactive) | 7.73 µM (inactive) | 5.36 µM (inactive) | 9.68 µM (inactive) | 13.1 µM (inactive) | 9.53 µM (inactive) | 10 µM (inactive) | 15.8 µM (inactive) | 4.99 µM (inactive) |
| O=C1CS[C@@](CC(c2ccc(Cl)cc2)c2ccc(Cl)cc2)(c2ccc(Cl)cc2)N1 | 19.2 µM (inactive) | 38.2 µM (inactive) | 45 µM (inactive) | 4.71 µM (inactive) | 25.1 µM (inactive) | 4.28 µM (inactive) | 51.3 µM (inactive) | 5.97 µM (inactive) | 43 µM (inactive) | 15.3 µM (inactive) | 9.75 µM (inactive) | 11.6 µM (inactive) | 14.2 µM (inactive) | 14.3 µM (inactive) | 9.75 µM (inactive) | 2.16 µM (inactive) | 11.8 µM (inactive) | 8.53 µM (inactive) | 12.5 µM (inactive) | 19.5 µM (inactive) |
| Cc1ccc(Nc2cc(=O)[nH]c(=S)[nH]2)cc1 | > 100 µM (inactive) | > 100 µM (inactive) | > 100 µM (inactive) | > 100 µM (inactive) | > 100 µM (inactive) | > 100 µM (inactive) | > 100 µM (inactive) | > 100 µM (inactive) | – | > 100 µM (inactive) | > 100 µM (inactive) | > 100 µM (inactive) | > 100 µM (inactive) | > 100 µM (inactive) | > 100 µM (inactive) | > 100 µM (inactive) | > 100 µM (inactive) | > 100 µM (inactive) | > 100 µM (inactive) | > 100 µM (inactive) |
| O=C(OC1OC2COC(=O)c3cc(O)c(O)c(O)c3-c3c(cc(O)c(O)c3O)C(=O)OC3C2OC(=O)[C@@]24CC(=O)[C@@](O)(OC25C(=O)O[C@H]2[C@@H](O)CO[C@@]25O)C2(O)Oc5c(O)c(O)cc(c5C24)C(=O)OC13)c1cc(O)c(O)c(O)c1 (some centres not stated) | 12.1 µM (inactive) | > 100 µM (inactive) | 83 µM (inactive) | 26.7 µM (inactive) | 34.8 µM (inactive) | 74 µM (inactive) | – | 27.7 µM (inactive) | > 100 µM (inactive) | 31.2 µM (inactive) | 25.7 µM (inactive) | 9.12 µM (inactive) | 74.5 µM (inactive) | > 100 µM (inactive) | 90.4 µM (inactive) | 56 µM (inactive) | 49.3 µM (inactive) | 12.6 µM (inactive) | 35.7 µM (inactive) | 28 µM (inactive) |
| Nc1nc(Cl)cc(Nc2ccc3c(c2)CCC3)n1 | 30.1 µM (inactive) | > 100 µM (inactive) | > 100 µM (inactive) | 44.3 µM (inactive) | > 100 µM (inactive) | > 100 µM (inactive) | 65 µM (inactive) | > 100 µM (inactive) | > 100 µM (inactive) | > 100 µM (inactive) | > 100 µM (inactive) | > 100 µM (inactive) | – | > 100 µM (inactive) | > 100 µM (inactive) | 80.2 µM (inactive) | > 100 µM (inactive) | 56.5 µM (inactive) | > 100 µM (inactive) | 65 µM (inactive) |
| CCOC(=O)C12CCC(c3c(C)cccc3C)(O1)C(C(=O)OC)=C2C(=O)OC (configuration not stated) | > 5.6 µM (inactive) | 3.52 µM (inactive) | 5.09 µM (inactive) | 3.06 µM (inactive) | > 10 µM (inactive) | 6.35 µM (inactive) | > 10 µM (inactive) | 3.62 µM (inactive) | > 7.5 µM (inactive) | 4.24 µM (inactive) | 3.4 µM (inactive) | 2.14 µM (inactive) | 4.11 µM (inactive) | 2.58 µM (inactive) | 5.52 µM (inactive) | > 6.75 µM (inactive) | 2.69 µM (inactive) | 2.39 µM (inactive) | 4.73 µM (inactive) | 6.7 µM (inactive) |
| CC(=O)C1=C(C)N(c2ccccc2)C2(O)C=CC(O)=C3C(=O)c4ccccc4C(=O)C312 (configuration not stated) | 14.3 µM (inactive) | 41.7 µM (inactive) | 48.4 µM (inactive) | 3.73 µM (inactive) | 16.3 µM (inactive) | 8.75 µM (inactive) | 24.7 µM (inactive) | 15.3 µM (inactive) | 19 µM (inactive) | 25.6 µM (inactive) | 15.8 µM (inactive) | 23 µM (inactive) | 32.9 µM (inactive) | 5.65 µM (inactive) | 25.5 µM (inactive) | 10.6 µM (inactive) | 20.3 µM (inactive) | 4.94 µM (inactive) | 15.6 µM (inactive) | 10.6 µM (inactive) |
| COc1cc(NS(C)(=O)=O)ccc1NCc1c[nH]c2ccc3ncccc3c12 | 22.4 µM (inactive) | 19.7 µM (inactive) | 16.5 µM (inactive) | 1.83 µM (inactive) | 26.4 µM (inactive) | 10.9 µM (inactive) | 28 µM (inactive) | 27.8 µM (inactive) | 23.1 µM (inactive) | 33 µM (inactive) | 20.4 µM (inactive) | 23.1 µM (inactive) | 22.2 µM (inactive) | 17 µM (inactive) | 12.3 µM (inactive) | 20.6 µM (inactive) | 16.3 µM (inactive) | 25.2 µM (inactive) | 17.3 µM (inactive) | 18.9 µM (inactive) |
| CCCCCCCCCCCCCC(=O)N(CCCCCCCCC)CC(O)C(O)C(OC1OC(CO)C(O)C(O)C1O)C(O)CO (configuration not stated) | 16.9 µM (inactive) | 22.5 µM (inactive) | 14.7 µM (inactive) | 26.2 µM (inactive) | 19.1 µM (inactive) | 19.1 µM (inactive) | 18.6 µM (inactive) | 22.3 µM (inactive) | 18.1 µM (inactive) | 17.3 µM (inactive) | 19.7 µM (inactive) | 21.2 µM (inactive) | 24.6 µM (inactive) | 17.1 µM (inactive) | 18.7 µM (inactive) | 19.8 µM (inactive) | 20.1 µM (inactive) | 19.5 µM (inactive) | 20.7 µM (inactive) | 18.5 µM (inactive) |
| CC#CCOC(=O)c1ccccc1OC(C)=O | > 100 µM (inactive) | > 100 µM (inactive) | > 100 µM (inactive) | > 100 µM (inactive) | > 100 µM (inactive) | > 100 µM (inactive) | > 100 µM (inactive) | – | – | > 100 µM (inactive) | > 100 µM (inactive) | > 100 µM (inactive) | > 100 µM (inactive) | > 100 µM (inactive) | > 100 µM (inactive) | > 100 µM (inactive) | > 100 µM (inactive) | > 100 µM (inactive) | > 100 µM (inactive) | > 100 µM (inactive) |
| CCC1(O)CC2CC(=O)OC2C1O (configuration not stated) | > 100 µM (inactive) | > 100 µM (inactive) | > 100 µM (inactive) | 0.423 µM (active) | > 100 µM (inactive) | > 100 µM (inactive) | > 100 µM (inactive) | > 100 µM (inactive) | > 100 µM (inactive) | > 100 µM (inactive) | > 100 µM (inactive) | > 100 µM (inactive) | > 100 µM (inactive) | > 100 µM (inactive) | > 100 µM (inactive) | – | > 100 µM (inactive) | > 100 µM (inactive) | > 100 µM (inactive) | > 100 µM (inactive) |
| CCOC(=O)C1C(C(C)C)C2(C#N)C(=N)OC1(C)C2(C#N)C#N (configuration not stated) | 2.72 µM (inactive) | > 100 µM (inactive) | > 100 µM (inactive) | 47 µM (inactive) | > 100 µM (inactive) | 49.7 µM (inactive) | > 100 µM (inactive) | > 100 µM (inactive) | > 100 µM (inactive) | 21.2 µM (inactive) | 54.5 µM (inactive) | > 100 µM (inactive) | – | 54.8 µM (inactive) | 56.4 µM (inactive) | 65.8 µM (inactive) | > 100 µM (inactive) | 43.3 µM (inactive) | 88.9 µM (inactive) | > 100 µM (inactive) |
